Patent US6620583B2, “Diagnostic screens for type 1 diabetes (IDDM)” (Boston Medical Center Corporation, priority 1998, dated 2003)

Columns and labels:
Assay type in all cases: cell-based, human
[1] = tested on: dermal fibroblasts from type I diabetic patients and matched controls; assay: Bradykinin-induced Ca2+ mobilization in fura-2 AM loaded fibroblasts (fluorescence spectrophotometry)
Method: The following examples describe novel findings upon which the present invention is based, at least in part. In particular, the present inventors have determined the effects of tumor necrosis factor alpha (TNF-α) treatment, and the diabetic environment (elevated glucose and fatty acid), on bradykinin-induced Ca^2+ mobilization in dermal fibroblasts from type I diabetic patients and matched controls. Fibroblasts were exposed to TNF-α (10 ng/ml) for up to 48 hours. Cells in suspension were then loaded with fura-2 acetoxymethyl ester, and bradykinin-induced Ca^2+ mobilization was measured using fluorescence spectrophotometry. […] With 24 hours of treatment, TNF-α-induced increments in peak bradykinin response were three-fold greater in diabetics than in controls (P<0.001).
Briefly, fibroblasts from 7 control and 10 diabetic donors (passages 7 to 30) were loaded with fura-2 AM and Ca^2+ mobilization in response to increasing concentrations of bradykinin was determined.
Briefly, paired flasks of cells were treated with TNF-α or left untreated. Fura-loaded cells were stimulated with 20 nM bradykinin and Ca^2+ mobilization was measured after 200 seconds. […] Fibroblasts were fura-2 AM loaded and Ca^2+ mobilization in response to increasing concentrations of bradykinin was determined. Each bar represents the mean of 14 to 33 separate determinations. In cells from both control and diabetic donors, TNF-α treatment augmented bradykinin induced Ca^2+ mobilization, although to a much greater extent in the diabetic donor. […] A small increase in the final equilibrium level of Ca^2+ was also seen consistently in the diabetic fibroblasts, but not in the controls.
The difference between control and diabetic cells can be seen more clearly through the bradykinin-induced increment between untreated and TNF-α treated. […] The change in peak response to bradykinin after TNF-α treatment was measures in fibroblasts from 7 control and 10 diabetic donors (3-8 separate experiments per donor). Each bar on the graph represents the mean of 14 to 34 separate determinations. […] ANOVA indicated an overall difference between control and diabetic (p<0.001), and specific differences between control and diabetic (Tukey p<0.001) at every bradykinin concentration above 1 nM.
Following the initial bradykinin induced peak of Ca^2+ mobilized from the ER, a sustained elevation of Ca^2+ occurs lasting for minutes. This sustained elevation in steady state Ca^2+ requires Ca^2+ entry from the extracellular space. Inappropriate elevation of Ca^2+ may lead to cell injury, apoptosis and death by activation of phospholipases, nucleases, and proteases (Cheung et al. (1986) N. Engl. J. Med. 314:1670-1676): thus, inappropriately elevated Ca^2+ in diabetic cells could be an important mechanisms for initiating diabetic pathology. Because of the important signal transducing properties of the sustained phase of the Ca^2+ response, the effects of TNF-α treatment on the steady state were examined. Briefly, fibroblasts from 7 control and 10 diabetic donors were exposed to 10 ng/ml TNF-α for 24 hours prior to bradykinin stimulation. The magnitude of the final steady state, or resting, intracellular [Ca^2+] following stimulation with bradykinin was determined. Each bar represents the mean of 14 to 34 separate determinations.
To determine whether the TNF-α induced increase in the peak bradykinin response was due to mobilization of Ca^2+ from intracellular stores, the Ca^2+ chelator EGTA was added prior to stimulation with bradykinin. FIG. 9 illustrates an experiment in which fibroblasts were treated with TNF-α for 24 hours or left untreated and the peak bradykinin response measured in the presence or absence of 2 mM EGTA. In these traces, 2 mM EGTA was added 10 seconds prior to stimulation with 200 nM bradykinin. The peak response was unaltered by EGTA in untreated and TNF-α treated cells. […]

[2] = tested on: fibroblasts from control and IDDM donors; assay: Thapsigargin-mediated emptying of intracellular Ca2+ stores in fura-loaded fibroblasts
Method: Thapsigargin, an irreversible inhibitor of the intracellular Ca^2+-ATPase, was used to determine if the TNF-α induced increment in peak bradykinin response was mediated by changes in the bradykinin signal transduction cascade, or was at the level of the intracellular Ca^2+ stores by irreversibly inhibiting their refilling FIG. 10 illustrates representative traces in which thapsigargin was added to untreated and TNF-α treated cells from control and IDDM donors. […] Potential mechanisms include alterations in modulation of Ca^2+-ATPase activity, changes in the ATPase itself or alterations in intraluminal signaling.

[3] = tested on: calreticulin; assay: Western blot of calreticulin expression in fibroblasts; conditions: 24 hr of TNF-α treatment
Source text: Although TNF-α is known to turn on a multitude of genes in many different cell types, including the fibroblast (Tessier et al. (1993) Arthritis & Rheumatism 36:1528-1539; Rathanaswami et al. (1993) Arthritis & Rheumatism 36:1295-1304; Butler et al. (1994) Eur. Cytokine Network 5:441-448), it is possible that new protein synthesis is required to replete a component of the signal transduction apparatus that is constantly being turned over.

O=C(O)CN(CCOCCOCCN(CC(=O)O)CC(=O)O)CC(=O)O [EGTA, reference compound]
effect on final [Ca2+]i after bradykinin ([1]; 2 mM EGTA added 10 seconds prior to 200 nM bradykinin): eliminate the increase in final [Ca^2+]I
effect on peak bradykinin response ([1]; 2 mM EGTA added 10 seconds prior to 200 nM bradykinin, untreated and TNF-α treated cells): unaltered

C[C@@H]1C[C@@H]([C@H](O)CC2CC(=O)NC(=O)C2)C(=O)[C@@H](C)C1 [cycloheximide, reference compound]
effect on TNF-α induced increment in bradykinin response ([1]; protein synthesis inhibitor given with TNF-α): blocked the TNF-α induced increment

CCCCCCCC/C=C\CCCCCCCC(=O)O [oleate, oleic acid]
effect on peak bradykinin response (% of 5.6 mM glucose) ([1]; 2 mM oleate with 11 mM glucose, 3 control and 4 diabetic donors, ANOVA p<0.001): significant effects
effect on steady state [Ca2+]i following bradykinin stimulation ([1]; 2 mM oleic acid with 11 mM glucose, 3 control and 4 diabetic donors, p<0.001): significant effect

C/C=C(/C)C(=O)O[C@H]1C(C)=C2[C@H]([C@@H]1OC(=O)CCCCCCC)[C@@](C)(OC(C)=O)C[C@H](OC(=O)CCC)[C@@]1(O)[C@H]2OC(=O)[C@@]1(C)O [thapsigargin, reference compound]
effect of thapsigargin on cytosolic Ca2+ ([2]; untreated and TNF-α treated cells): transient rise of cytosolic Ca^2+

TNF-α
effect of TNF-α on thapsigargin-induced Ca2+ transients ([2]; TNF-α treated versus untreated fibroblasts): greater in TNF-α treated fibroblasts than in untreated cells
treatment time at which maximum TNF-α induced increment in peak bradykinin response is achieved ([1]; 10 ng/ml TNF-α, 3 donors, not diminished by 48 hr): ≤ 24 h
TNF-α induced increment in bradykinin-induced Ca2+ mobilization, diabetic cells versus control cells ([1]; TNF-α 10 ng/ml for 24 hours, 7 control and 10 diabetic donors): 3 fold
effect on steady state Ca2+ following the bradykinin response ([1]; TNF-α 10 ng/ml for 24 hours, control and diabetic donors, ANOVA p<0.001): significant elevations of steady state Ca^2+
effect on bradykinin-induced Ca2+ mobilization ([1]; TNF-α 10 ng/ml, 24 hour incubation, 20 nM bradykinin, control and diabetic donors): potentiated bradykinin-induced Ca^2+ mobilization
treatment time from which increases in bradykinin-induced Ca2+ mobilization were observed ([1]; TNF-α 10 ng/ml, bradykinin 1 nM to 1 μM, controls and diabetics): ≥ 1 h
effect on basal intracellular Ca2+ ([1]; TNF-α 10 ng/ml, p<0.05): significant increase in basal Ca^2+ in diabetic but not control cells
effect on peak bradykinin response in control donors, diabetic milieu experiment ([1]; control donors, 48 hours FFA medium, TNF-α final 24 hours, data not shown): little or no effect
effect on calreticulin expression [3]: no change in calreticulin expression
